# Target: Human eIF4E (Homo sapiens (Human), UniProt P06730)
# Experiment: Human eIF4E/4G binding assay (time-resolved fluorescence, HH-eIF4E and biotin-labeled 4G2 peptide)
# Settings: inhibition of binding of His-tagged human eIF4E (aa 28-217) to biotin-labeled 4G2 peptide
# Procedure: The protein was solubilized with 8 M urea and purified under denaturing conditions using nickel-charged HisTrap HP columns (GE Healthcare). The protein was refolded by diluting to approximately 0.25 mg/mL with 6 M urea, 20 mM Hepes pH 7.0, 500 mM NaCl, 1 mM DTT, 1 mM EDTA, and 0.5 M arginine.HCl, and then dialyzing overnight into the same buffer without the urea. The protein was further dialyzed into 20 mM Hepes pH 6.5, 50 mM NaCl, 1 mM EDTA, and 1 mM DTT, filtered, and then concentrated using Hitrap SP sepharose FF columns (GE Healthcare). The protein was dialyzed into 20 mM Hepes pH 7.0, 500 mM NaCl, 5 mM DTT, and 10% glycerol and stored at −80° C. until use. Test compounds (1.6 mM stock in DMSO) were diluted 3 fold in series in DMSO. Compound solutions were diluted 4 fold in Assay Buffer (50 mM sodium phosphate, pH 6.5, 50 mM KCl, 1 mM DTT and 0.5 mg/mL gammaglobulin). […] The samples were incubated at room temperature for 20 minutes. […] IC50 values were calculated using Condoseo software (Genedata AG).
# Human eIF4E, sequence (P06730 28-217): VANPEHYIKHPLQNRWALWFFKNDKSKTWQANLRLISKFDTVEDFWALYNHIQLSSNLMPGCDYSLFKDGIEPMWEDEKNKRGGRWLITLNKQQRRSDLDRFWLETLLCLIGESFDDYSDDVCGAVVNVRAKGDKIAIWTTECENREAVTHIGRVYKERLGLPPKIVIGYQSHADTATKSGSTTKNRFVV
row,IC50,SMILES
1,3 µM,"O=C(O)c1cc(-c2nc(-c3cccc(Br)c3)cs2)ccc1-c1ccccc1[N+](=O)[O-] [Example 26, 4-[4-(3-Bromo-phenyl)-thiazol-2-yl]-2′-nitro-biphenyl-2-carboxylic acid]"
2,3 µM,"O=C(O)c1cc(-c2nc(-c3ccc(Cl)c(Cl)c3)cs2)ccc1-c1ccc(C(F)(F)F)cc1C(F)(F)F [Example 125, 4-[4-(3,4-Dichloro-phenyl)-thiazol-2-yl]-2′,4′-bis-trifluoromethyl-biphenyl-2-carboxylic acid]"
3,1.4 µM,"O=C(O)c1cc(-c2nc(-c3ccc(Cl)c(Cl)c3)cs2)ccc1-c1ccc(F)cc1Cl [Example 134, 2′-Chloro-4-[4-(3,4-dichloro-phenyl)-thiazol-2-yl]-4′-fluoro-biphenyl-2-carboxylic acid]"
4,7.8 µM,"Cn1nccc1CNC(=O)c1ccc(-c2ccc(-c3nc(-c4ccc(Cl)c(Cl)c4)cs3)cc2C(=O)O)cc1 [Example 50, 4-[4-(3,4-Dichloro-phenyl)-thiazol-2-yl]-4′-[(2-methyl-2H-pyrazol-3-ylmethyl)-carbamoyl]-biphenyl-2-carboxylic acid]"
5,5 µM,"O=C(O)c1cc(-c2nc(-c3ccc(F)c(Cl)c3)cs2)ccc1-c1ccccc1[N+](=O)[O-] [Example 18, 4-[4-(3-Chloro-4-fluoro-phenyl)-thiazol-2-yl]-2′-nitro-biphenyl-2-carboxylic acid]"
6,5.9 µM,"O=C(O)c1cc(-c2nc(-c3ccc(Cl)c(Cl)c3)cs2)ccc1-c1ccccc1 [Example 151, 4-[4-(3,4-Dichloro-phenyl)-thiazol-2-yl]-biphenyl-2-carboxylic acid]"
7,3.1 µM,"O=C(NCc1cccs1)c1ccc(-c2ccc(-c3nc(-c4ccc(Cl)c(Cl)c4)cs3)cc2C(=O)O)cc1 [Example 75, 4-[4-(3,4-Dichloro-phenyl)-thiazol-2-yl]-4′-[(thiophen-2-ylmethyl)-carbamoyl]-biphenyl-2-carboxylic acid]"
8,5.5 µM,"O=C(NCC1CCCO1)c1ccc(-c2ccc(-c3nc(-c4ccc(Cl)c(Cl)c4)cs3)cc2C(=O)O)cc1 (stereo not shown) [Example 61, 4-[4-(3,4-Dichloro-phenyl)-thiazol-2-yl]-4′-[(tetrahydro-furan-2-ylmethyl)-carbamoyl]-biphenyl-2-carboxylic acid]"
9,1.5 µM,"CC(=O)c1ccc(Cl)c(-c2ccc(-c3nc(-c4ccc(Cl)c(Cl)c4)cs3)cc2C(=O)O)c1 [Example 118, 5′-Acetyl-2′-chloro-4-[4-(3,4-dichloro-phenyl)-thiazol-2-yl]-biphenyl-2-carboxylic acid]"
10,1.7 µM,"N#Cc1ccc(-c2ccc(-c3nc(-c4ccc(Cl)c(Cl)c4)cs3)cc2C(=O)O)cc1Cl [Example 114, 3′-Chloro-4′-cyano-4-[4-(3,4-dichloro-phenyl)-thiazol-2-yl]-biphenyl-2-carboxylic acid]"
11,4 µM,"Cc1ncccc1-c1ccc(-c2nc(-c3ccc(Cl)c(Cl)c3)cs2)cc1C(=O)O [Example 98, 5-[4-(3,4-Dichloro-phenyl)-thiazol-2-yl]-2-(2-methyl-pyridin-3-yl)-benzoic acid]"
12,5.6 µM,"O=C(O)c1cc(-c2nc(-c3ccc(Cl)c(Cl)c3)cs2)ccc1-c1ccc(F)cc1F [Example 132, 4-[4-(3,4-Dichloro-phenyl)-thiazol-2-yl]-2′,4′-difluoro-biphenyl-2-carboxylic acid]"
13,9.6 µM,"O=C(NCCc1cccnc1)c1ccc(-c2ccc(-c3nc(-c4ccc(Cl)c(Cl)c4)cs3)cc2C(=O)O)cc1 [Example 66, 4-[4-(3,4-Dichloro-phenyl)-thiazol-2-yl]-4′-(2-pyridin-3-yl-ethylcarbamoyl)-biphenyl-2-carboxylic acid]"
14,1.7 µM,"Cc1cccc(CNC(=O)c2ccc(-c3ccc(-c4nc(-c5ccc(Cl)c(Cl)c5)cs4)cc3C(=O)O)cc2)c1 [Example 70, 4-[4-(3,4-Dichloro-phenyl)-thiazol-2-yl]-4′-(3-methyl-benzylcarbamoyl)-biphenyl-2-carboxylic acid]"
15,3.2 µM,"O=C(NCc1cccc(C(F)(F)F)c1)c1ccc(-c2ccc(-c3nc(-c4ccc(Cl)c(Cl)c4)cs3)cc2C(=O)O)cc1 [Example 71, 4-[4-(3,4-Dichloro-phenyl)-thiazol-2-yl]-4′-(3-trifluoromethyl-benzylcarbamoyl)-biphenyl-2-carboxylic acid]"
16,2.8 µM,"O=C(O)c1cc(-c2nc(-c3ccc(Cl)c(Cl)c3)cs2)ccc1-c1ccccc1[N+](=O)[O-] [Example 15, 4-[4-(3,4-Dichloro-phenyl)-thiazol-2-yl]-2′-nitro-biphenyl-2-carboxylic acid]"
17,2.3 µM,"O=C(NCc1ccccc1)c1ccc(-c2ccc(-c3nc(-c4ccc(Cl)c(Cl)c4)cs3)cc2C(=O)O)cc1 [Example 76, 4′-Benzylcarbamoyl-4-[4-(3,4-dichloro-phenyl)-thiazol-2-yl]-biphenyl-2-carboxylic acid]"

row,IC50,SMILES
1,2.2 µM,"O=C(O)c1cc(-c2nc(-c3ccc(Cl)c(Cl)c3)cs2)ccc1-c1ccccc1Cl [Example 153, 2′-Chloro-4-[4-(3,4-dichloro-phenyl)-thiazol-2-yl]-biphenyl-2-carboxylic acid]"
2,2.2 µM,"O=C(O)c1cc(-c2nc(-c3ccc(Cl)c(Cl)c3)cs2)ccc1-c1ccsc1Cl [Example 145, 2-(2-Chloro-thiophen-3-yl)-5-[4-(3,4-dichloro-phenyl)-thiazol-2-yl]-benzoic acid]"
3,4.2 µM,"Cc1cscc1-c1ccc(-c2nc(-c3ccc(Cl)c(Cl)c3)cs2)cc1C(=O)O [Example 142, 5-[4-(3,4-Dichloro-phenyl)-thiazol-2-yl]-2-(4-methyl-thiophen-3-yl)-benzoic acid]"
4,8.3 µM,"COc1ccc(-c2csc(-c3ccc(-c4ccccc4[N+](=O)[O-])c(C(=O)O)c3)n2)cc1 [Example 32, 4-[4-(4-Methoxy-phenyl)-thiazol-2-yl]-2′-nitro-biphenyl-2-carboxylic acid]"
5,2.6 µM,"O=C(O)c1cc(-c2nc(-c3cccc(F)c3)cs2)ccc1-c1ccccc1[N+](=O)[O-] [Example 24, 4-[4-(3-Fluoro-phenyl)-thiazol-2-yl]-2′-nitro-biphenyl-2-carboxylic acid]"
6,> 80 µM,"CN1CCC(NC(=O)c2ccc(-c3ccc(-c4nc(-c5ccc(Cl)c(Cl)c5)cs4)cc3C(=O)O)cc2)CC1 [Example 51, 4-[4-(3,4-Dichloro-phenyl)-thiazol-2-yl]-4′-(1-methyl-piperidin-4-ylcarbamoyl)-biphenyl-2-carboxylic acid]"
7,1.3 µM,"COc1cccc(CNC(=O)c2ccc(-c3ccc(-c4nc(-c5ccc(Cl)c(Cl)c5)cs4)cc3C(=O)O)cc2)c1 [Example 65, 4-[4-(3,4-Dichloro-phenyl)-thiazol-2-yl]-4′-(3-methoxy-benzylcarbamoyl)-biphenyl-2-carboxylic acid]"
8,4.3 µM,"O=C(O)c1cc(-c2nc(-c3ccc(Cl)c(Cl)c3)cs2)ccc1-c1ccc(C(=O)N2CCCC2)cc1 [Example 57, 4-[4-(3,4-Dichloro-phenyl)-thiazol-2-yl]-4′-(pyrrolidine-1-carbonyl)-biphenyl-2-carboxylic acid]"
9,5.9 µM,"Cc1cc(-c2csc(-c3ccc(-c4ccccc4[N+](=O)[O-])c(C(=O)O)c3)n2)ccc1Cl [Example 9, 4-[4-(4-Chloro-3-methyl-phenyl)-thiazol-2-yl]-2′-nitro-biphenyl-2-carboxylic acid]"
10,5 µM,"COc1cccc(-c2ccc(-c3nc(-c4ccc(Cl)c(Cl)c4)cs3)cc2C(=O)O)c1 [Example 91, 4-[4-(3,4-Dichloro-phenyl)-thiazol-2-yl]-3′-methoxy-biphenyl-2-carboxylic acid]"
11,1.3 µM,"NC(=O)c1ncccc1-c1ccc(-c2nc(-c3ccc(Cl)c(Cl)c3)cs2)cc1C(=O)O [Example 77, 2-(2-Carbamoyl-pyridin-3-yl)-5-[4-(3,4-dichloro-phenyl)-thiazol-2-yl]-benzoic acid]"
12,3.8 µM,"CC(=O)c1ccc(-c2ccc(-c3nc(-c4ccc(Cl)c(Cl)c4)cs3)cc2C(=O)O)cc1 [Example 120, 4′-Acetyl-4-[4-(3,4-dichloro-phenyl)-thiazol-2-yl]-biphenyl-2-carboxylic acid]"
13,23 µM,"O=C(O)c1cc(-c2nc(-c3ccccc3C(F)(F)F)cs2)ccc1-c1ccccc1[N+](=O)[O-] [Example 5, 2′-Nitro-4-[4-(2-trifluoromethyl-phenyl)-thiazol-2-yl]-biphenyl-2-carboxylic acid]"
14,1.8 µM,"COc1cccc(Cl)c1-c1ccc(-c2nc(-c3ccc(Cl)c(Cl)c3)cs2)cc1C(=O)O [Example 90, 2′-Chloro-4-[4-(3,4-dichloro-phenyl)-thiazol-2-yl]-6′-methoxy-biphenyl-2-carboxylic acid]"
15,> 80 µM,"O=C(O)c1cc(-c2nc(-c3cccnc3)cs2)ccc1-c1ccccc1[N+](=O)[O-] [Example 38, 2′-Nitro-4-(4-pyridin-3-yl-thiazol-2-yl)-biphenyl-2-carboxylic acid]"
16,8.3 µM,"O=C(O)c1cc(-c2nc(-c3cccc(C(F)(F)F)c3)cs2)ccc1-c1ccccc1[N+](=O)[O-] [Example 6, 2′-Nitro-4-[4-(3-trifluoromethyl-phenyl)-thiazol-2-yl]-biphenyl-2-carboxylic acid]"
17,1.9 µM,"N#Cc1cc(-c2ccc(-c3nc(-c4ccc(Cl)c(Cl)c4)cs3)cc2C(=O)O)ccc1Cl [Example 115, 4′-Chloro-3′-cyano-4-[4-(3,4-dichloro-phenyl)-thiazol-2-yl]-biphenyl-2-carboxylic acid]"
